In article PMC10821532, “Sex and Cross-Sex Testosterone Treatment Alters Gamma-Hydroxybutyrate Acid Toxicokinetics and Toxicodynamics in Rats” (Pharmaceutics, 2024):
Where two headings read alike, the source gives them in different places.

Assay: GHB toxicokinetic study, i.v. bolus, plasma and urine up to 8 h, noncompartmental analysis
Type: in vivo, Sprague Dawley rats
Settings: rat, iv
Method: Male and female Sprague Dawley (SD) rats, ovariectomized (OVX) females, and castrated (CST) males were obtained from Charles River (Wilmington, MA, USA) at 8 weeks of age. The animals were housed under controlled temperature and humidity with an artificial 12 h light/dark cycle, and food and water were available ad libitum. The animals were acclimatized for at least one week before experiments. Hormone treatment was conducted by implanting OVX female and CST male rats subcutaneously with 60-day release pellets containing 7.5 mg testosterone or corresponding placebo pellets (Innovative Research of America) at 10 weeks of age. After 21 days of hormone exposure, rats were utilized in toxicokinetic studies. Age-matched male and female rats were used as control groups. Female rats in the estrus stage were selected for the study. Estrus cycle stages of female rats were monitored daily by vaginal lavage smear, as described in previously published literature. The Institutional Animal Care and Use Committee (IACUC) at the University of the Pacific approved all experiments.
Jugular vein cannulas were surgically implanted under anesthesia with ketamine/xylazine. Cannulas were flushed daily with heparinized saline to maintain patency. Rats were allowed a minimum of 72 h for recovery from surgery before the experiments were conducted. GHB was administered intravenously as a 1000 mg/kg i.v. bolus or 1500 mg/kg iv bolus with or without AR-C155858 (1 mg/kg i.v. bolus) via a jugular vein cannula to the animals at 13 weeks of age (N = 5–7 per group). Rats were dosed in metabolic cages with ad libitum access to water to allow for the concurrent collection of blood and urine samples for up to 8 h. GHB was administered as a 300 mg/mL solution in sterile water, and the time of administration was considered as time 0. AR-C155858 was administered as a 1 mg/mL solution in 10% cyclodextrin in normal saline 5 min after GHB administration. Blood samples (200 μL) were taken from the jugular vein cannula at different time points: 5, 10, 20, 30, 60, 90, 120, 180, 240, 270, 300, and 330 min for 1000 mg/kg and 10, 30, 60, 90, 120, 180, 240, 270, 300, 330, 360, and 390/480 min for 1500 mg/kg bolus with or without AR-C155858. Plasma samples were separated by centrifugation and stored at −20 °C. Urine samples were collected at 120, 240, and 360 min for 1000 mg/kg and 120, 240, and 390/480 min for 1500 mg/kg bolus with or without AR-C155858 post-dose; the total urine volume was determined, and the samples were stored at −20 °C.
GHB in plasma and urine were quantified using a validated liquid chromatography/tandem mass spectrometry (LC/MS/MS) assay that was described previously. Briefly, for the preparation of plasma standards and quality controls (QCs), 5 μL of GHB-d6 and 5 μL of standard stock solution or QC stock solution were added to 45 μL of blank plasma. For each unknown plasma sample, 5 μL of GHB-d6 was added to 50 μL of plasma. Protein precipitation was then performed by the addition of 800 μL of acetonitrile with 0.1% formic acid, followed by centrifugation at 10,000 rpm for 20 min. 750 μL of the supernatant was transferred to a clean disposable glass tube and evaporated using a MultiVap Nitrogen Evaporator (Organomation, Berlin, MA, USA) under a nitrogen stream. Dried samples were reconstituted in 250 μL of 95:5 double-distilled water—acetonitrile with 0.1% acetic acid. For urine standards and QCs, 25 μL of blank urine, 5 μL of standard or QC stock solution, 5 μL of GHB-d6, and 465 μL of double-distilled water were mixed. For unknown urine samples, 25 μL of the sample was added to 5 μL of GHB-d6 and 470 μL of double-distilled water. The same LC/MS/MS method was used for GHB plasma and urine analyses. LC/MS/MS equipment consisted of an Agilent 1200 series UPLC consisting of an online degasser, binary pump, and autosampler (Agilent Technologies, Santa Clara, CA, USA) connected to a Agilent 6460 Triple Quad Mass Spectrometer. […]

With `O=C(O)CCCO` [GHB, Γ-hydroxybutyric acid] the clearance (female, Sprague Dawley, plasma and urine, 1000 mg/kg, 1000 mg/kg GHB iv, intact female (estrus) rats, read-out: CLm – Metabolic clearance) was 4.1 ± 0.6 mL/min/kg, the CL renal (female, Sprague Dawley, plasma and urine, 1500 mg/kg, 1500 mg/kg GHB iv, OVX testosterone placebo rats, read-out: CLR (renal clearance)) was 3.5 ± 0.5 mL/min/kg and the CL renal (female, Sprague Dawley, plasma and urine, 1500 mg/kg, 1500 mg/kg GHB iv, OVX testosterone rats, read-out: CLR (renal clearance)) was 2.7 ± 1.5 mL/min/kg. It also gave a CL renal (female, Sprague Dawley, plasma and urine, 1500 mg/kg, 1500 mg/kg GHB iv, intact female (estrus) rats, read-out: CLR (renal clearance)) of 3.7 ± 1.1 mL/min/kg, a clearance (female, Sprague Dawley, plasma, 1000 mg/kg, 1000 mg/kg GHB iv, OVX testosterone placebo rats, read-out: CL - Total clearance) of 5.5 ± 0.3 mL/min/kg and a clearance (female, Sprague Dawley, plasma, 1000 mg/kg, 1000 mg/kg GHB iv, intact female (estrus) rats, read-out: CL - Total clearance) of 6.8 ± 0.7 mL/min/kg. For the same compound, the clearance (female, Sprague Dawley, plasma, 1500 mg/kg, 1500 mg/kg GHB iv, intact female (estrus) rats, read-out: CL (total clearance)) was 4.7 ± 1.1 mL/min/kg, the CL renal (female, Sprague-Dawley, plasma and urine, 1500 mg/kg, 1500 mg/kg GHB + 1mg/kg AR-C 155858 iv, OVX testosterone placebo rats, read-out: CLR (renal clearance)) was 7 ± 1.4 mL/min/kg and the clearance (female, Sprague-Dawley, plasma and urine, 1500 mg/kg, 1500 mg/kg GHB + 1mg/kg AR-C 155858 iv, OVX testosterone placebo rats, read-out: CLm (metabolic clearance)) was 2.7 ± 0.9 mL/min/kg. The CL renal (female, Sprague-Dawley, plasma and urine, 1500 mg/kg, 1500 mg/kg GHB + 1mg/kg AR-C 155858 iv, OVX testosterone rats, read-out: CLR (renal clearance)) was 7 ± 0.9 mL/min/kg, the clearance (female, Sprague-Dawley, plasma and urine, 1500 mg/kg, 1500 mg/kg GHB + 1mg/kg AR-C 155858 iv, OVX testosterone rats, read-out: CLm (metabolic clearance)) was 2.4 ± 1.3 mL/min/kg and the CL renal (female, Sprague-Dawley, plasma and urine, 1500 mg/kg, 1500 mg/kg GHB + 1mg/kg AR-C 155858 iv, intact female (estrus) rats, read-out: CLR (renal clearance)) was 6.3 ± 1.8 mL/min/kg. The clearance (female, Sprague-Dawley, plasma and urine, 1500 mg/kg, 1500 mg/kg GHB + 1mg/kg AR-C 155858 iv, intact female (estrus) rats, read-out: CLm (metabolic clearance)) was 2.2 ± 0.4 mL/min/kg, the clearance (female, Sprague-Dawley, plasma, 1500 mg/kg, 1500 mg/kg GHB + 1mg/kg AR-C 155858 iv, OVX testosterone placebo rats, read-out: CL (total clearance)) was 9.7 ± 2.1 mL/min/kg and the clearance (female, Sprague-Dawley, plasma, 1500 mg/kg, 1500 mg/kg GHB + 1mg/kg AR-C 155858 iv, OVX testosterone rats, read-out: CL (total clearance)) was 9.4 ± 1.4 mL/min/kg. It also gave a clearance (female, Sprague-Dawley, plasma, 1500 mg/kg, 1500 mg/kg GHB + 1mg/kg AR-C 155858 iv, intact female (estrus) rats, read-out: CL (total clearance)) of 8.5 ± 1.9 mL/min/kg, a clearance (female, Sprague-Dawley, plasma, 1500 mg/kg, 1500 mg/kg GHB iv, OVX testosterone placebo rats, read-out: CL (total clearance)) of 5.7 ± 0.9 mL/min/kg and a CL renal (male, Sprague Dawley, plasma and urine, 1000 mg/kg, 1000 mg/kg GHB iv, CST testosterone placebo rats, read-out: CLR - Renal clearance) of 3 ± 0.7 mL/min/kg. The clearance (male, Sprague Dawley, plasma and urine, 1000 mg/kg, 1000 mg/kg GHB iv, CST testosterone placebo rats, read-out: CLm – Metabolic clearance) was 1.6 ± 0.5 mL/min/kg, the clearance (male, Sprague Dawley, plasma and urine, 1000 mg/kg, 1000 mg/kg GHB iv, CST testosterone rats, read-out: CLm – Metabolic clearance) was 2.1 ± 0.4 mL/min/kg and the CL renal (male, Sprague Dawley, plasma and urine, 1000 mg/kg, 1000 mg/kg GHB iv, intact male rats, read-out: CLR - Renal clearance) was 2.2 ± 0.4 mL/min/kg. The clearance (male, Sprague Dawley, plasma and urine, 1000 mg/kg, 1000 mg/kg GHB iv, intact male rats, read-out: CLm – Metabolic clearance) was 2.4 ± 0.5 mL/min/kg, the CL renal (male, Sprague Dawley, plasma and urine, 1500 mg/kg, 1500 mg/kg GHB iv, CST testosterone placebo rats, read-out: CLR (renal clearance)) was 2.9 ± 0.4 mL/min/kg and the CL renal (male, Sprague Dawley, plasma and urine, 1500 mg/kg, 1500 mg/kg GHB iv, intact male rats, read-out: CLR (renal clearance)) was 4.2 ± 1.3 mL/min/kg. The clearance (male, Sprague Dawley, plasma, 1000 mg/kg, 1000 mg/kg GHB iv, CST testosterone placebo rats, read-out: CL - Total clearance) was 4.6 ± 0.8 mL/min/kg, the clearance (male, Sprague Dawley, plasma, 1000 mg/kg, 1000 mg/kg GHB iv, CST testosterone rats, read-out: CL - Total clearance) was 5.3 ± 1 mL/min/kg and the clearance (male, Sprague Dawley, plasma, 1000 mg/kg, 1000 mg/kg GHB iv, intact male rats, read-out: CL - Total clearance) was 4.6 ± 0.8 mL/min/kg. For the same compound, the clearance (male, Sprague Dawley, plasma, 1500 mg/kg, 1500 mg/kg GHB iv, intact male rats, read-out: CL (total clearance)) was 4.8 ± 1.4 mL/min/kg, the CL renal (male, Sprague-Dawley, plasma and urine, 1000 mg/kg, 1000 mg/kg GHB iv, CST testosterone rats, read-out: CLR - Renal clearance) was 3.2 ± 0.9 mL/min/kg and the CL renal (male, Sprague-Dawley, plasma and urine, 1500 mg/kg, 1500 mg/kg GHB + 1mg/kg AR-C 155858 iv, CST testosterone placebo rats, read-out: CLR (renal clearance)) was 5.4 ± 1.1 mL/min/kg. The clearance (male, Sprague-Dawley, plasma and urine, 1500 mg/kg, 1500 mg/kg GHB + 1mg/kg AR-C 155858 iv, CST testosterone placebo rats, read-out: CLm (metabolic clearance)) was 2.5 ± 1.3 mL/min/kg, the CL renal (male, Sprague-Dawley, plasma and urine, 1500 mg/kg, 1500 mg/kg GHB + 1mg/kg AR-C 155858 iv, CST testosterone rats, read-out: CLR (renal clearance)) was 5.6 ± 1.2 mL/min/kg and the clearance (male, Sprague-Dawley, plasma and urine, 1500 mg/kg, 1500 mg/kg GHB + 1mg/kg AR-C 155858 iv, CST testosterone rats, read-out: CLm (metabolic clearance)) was 1.9 ± 0.1 mL/min/kg. For the same compound, the CL renal (male, Sprague-Dawley, plasma and urine, 1500 mg/kg, 1500 mg/kg GHB + 1mg/kg AR-C 155858 iv, intact male rats, read-out: CLR (renal clearance)) was 6.1 ± 0.5 mL/min/kg, the clearance (male, Sprague-Dawley, plasma and urine, 1500 mg/kg, 1500 mg/kg GHB + 1mg/kg AR-C 155858 iv, intact male rats, read-out: CLm (metabolic clearance)) was 2.1 ± 0.3 mL/min/kg and the CL renal (male, Sprague-Dawley, plasma and urine, 1500 mg/kg, 1500 mg/kg GHB iv, CST testosterone rats, read-out: CLR (renal clearance)) was 1.4 ± 0.6 mL/min/kg. The clearance (male, Sprague-Dawley, plasma, 1500 mg/kg, 1500 mg/kg GHB + 1mg/kg AR-C 155858 iv, CST testosterone placebo rats, read-out: CL (total clearance)) was 7.9 ± 1.2 mL/min/kg, the clearance (male, Sprague-Dawley, plasma, 1500 mg/kg, 1500 mg/kg GHB + 1mg/kg AR-C 155858 iv, CST testosterone rats, read-out: CL (total clearance)) was 7.5 ± 1.4 mL/min/kg and the clearance (male, Sprague-Dawley, plasma, 1500 mg/kg, 1500 mg/kg GHB + 1mg/kg AR-C 155858 iv, intact male rats, read-out: CL (total clearance)) was 8.2 ± 0.6 mL/min/kg. The clearance (male, Sprague-Dawley, plasma, 1500 mg/kg, 1500 mg/kg GHB iv, CST testosterone placebo rats, read-out: CL (total clearance)) was 4.9 ± 0.4 mL/min/kg and the clearance (male, Sprague-Dawley, plasma, 1500 mg/kg, 1500 mg/kg GHB iv, CST testosterone rats, read-out: CL (total clearance)) was 3.2 ± 0.7 mL/min/kg.
